Assay: osmotic coefficient (dimensionless); mn = molality of the nth substance listed, in mol/kg
Details: 298.15 K, Liquid, isopiestic method

O=C([O-])CC(O)(CC(=O)[O-])C(=O)O.[Na+].[Na+] [disodium hydrogen citrate] + O
Details	osmotic coefficient
m1 = 0.2817	0.806
m1 = 0.2939	0.792
m1 = 0.3096	0.77
m1 = 0.3227	0.773
m1 = 0.3856	0.759
m1 = 0.4011	0.753
m1 = 0.4258	0.75
m1 = 0.4592	0.724
m1 = 0.4761	0.726
m1 = 0.4822	0.728
m1 = 0.5501	0.714
m1 = 0.6381	0.71
m1 = 0.6827	0.706
m1 = 0.6915	0.705
m1 = 0.6951	0.707
m1 = 0.6997	0.708
m1 = 1.018	0.689
m1 = 1.09	0.688
m1 = 1.107	0.682
m1 = 1.246	0.688
m1 = 1.329	0.682
m1 = 1.579	0.694
m1 = 1.635	0.694
m1 = 1.659	0.69
m1 = 1.731	0.69
m1 = 1.788	0.701
m1 = 1.928	0.702
m1 = 1.934	0.693
m1 = 2	0.704
m1 = 2.327	0.711
m1 = 2.393	0.712
m1 = 2.439	0.711

O=C([O-])CC(O)(CC(=O)O)C(=O)O.[Na+] [sodium dihydrogen citrate] + O
Details	osmotic coefficient
m1 = 0.3252	0.849
m1 = 0.4619	0.829
m1 = 0.5944	0.82
m1 = 0.7158	0.803
m1 = 0.7377	0.81
m1 = 0.7458	0.805
m1 = 0.7565	0.801
m1 = 0.7666	0.798
m1 = 0.78	0.81
m1 = 0.9089	0.801
m1 = 1.096	0.813

Source: the NIST ThermoML archive (doi:10.1021/je100864e)
